“Also recorded” adds a separate entry of the source. *1 amine or outer side, *2 acyl side, *3 side chain or, on linkers, in order; H or OH if unused. Where a SMILES comes first, the peptide text is derived from it. Where no end group is shown, it is not given here. [ ]: non-standard residue; d: D form. sY = N[C@@H](Cc1ccc(OS(=O)(=O)O)cc1)C(=O)O; Suc = O=C(CCC(=O)[*:2])[*:1]; Ava = NCCCCC(=O)O
Assays:
[1] = test system: carboxypeptidase Y (product of Boehringer Mannheim); test: carboxypeptidase Y in 0.1M sodium-phoshate buffer (pH7.0); settings: 37° C., up to 30 min.
[2] = test system: V8 protease (product of Sigma); test: V8 protease in 0.1M sodium-phoshate buffer (pH7.0); settings: 37° C., up to 1 hour
[3] = target: T1, thrombin (Homo sapiens, UniProt P00734); test: anti-thrombin activity; chromogenic assay (Chromozym TH hydrolysis, apparent dissociation constant Ki'); type: biochemical; design: 100 μl of human-thrombin prepared at 10 NIH units/ml in aforesaid buffer; settings: for Ki: apparent dissociation constant, 350 pM human-thrombin, 100 μM Chromozym TH, 37° C.; for Potency: relative to hirudin HV-1 = 1
Protocol: Anti-thrombin activities were measured by measuring the degree of inhibition of thrombin's hydrolytic activity on synthetic substrate Chromozym TH (Tocylglycil-prolylarginine-4-nitroanilideacetate). This reaction was carried out as follows. […] Here, the molar concentration of aforementioned human-thrombin was determined by the method of active site titration [G. W. Jameson et al., Biochem. J., 131, p107-117 (1973)] using 4-methylunberifenyl-p-guanidinobenzoate as substrate. After the pre-incubation, Chromozym TH (product of Boehringer-Mannheim) was added to a final concentration of 100 μM, and released p-nitroanilide was measured at the wave length of 405 nm, and the initial velocity of the hydrolytic reactions were measured for each of the abovementioned hirudins at various concentrations. From this initial velocity of the hydrolytic reactions, the apparent dissociation constants Ki' were calculated by the method of S. R. Stone et al. [Biochemistry, 25, p4622-4628 (1986)].

[4] = Prolongation of bleeding time (tail vein puncture wound); type: in vivo; settings: wound 5 minutes after administration, male mice
Protocol: Samples were injected into male mice (20-25 g) via their tail vein under anaesthesia using pentobarbital (40 mg/kg i.p.). A puncture wound was made by inserting a 21G needle (outer diameter 0.85 mm) into the other side of the tail vein 5 minutes after administration of test compounds, and the bleeding time of the wound was measured.
A filter paper was put on the wound with changes every 15 seconds. Bleeding time is defined as the time required until no red spot is observed on the filter paper.

[5] = target: T1, thrombin; test: anti-thrombin activity; clotting assay (coagulation time with fibrinogen as substrate); type: biochemical; design: 100 μl of human-thrombin prepared at 10 NIH units/ml in aforesaid buffer; settings: for IC50: concentration corresponding to 50 thrombin units, human-thrombin 10 NIH units/ml, human-fibrinogen 6 mg/ml, read-out: 50% Inhibition Concentration (converted)
Protocol: Measurement of anti-thrombin activity was done by looking at anti-coagulant activity as an index using fibrinogen as the substrate. That is, the compounds were dossolved in 200 μl of 0.1 mM Tris-HCl buffer (pH7.5) containing 0.1% polyethyleneglycol-6000, 100 μl of human-thrombin prepared at 10 NIH units/ml in aforesaid buffer, were added 200 μl of human-fibrinogen (Sigma) prepared at 6 mg/ml in aforesaid tris-hydrochloride buffer were added, and the coagulation time of the reaction mixtures were measured. For measuring of coagulation times, coagulation time analyzer (Amelung KC10A) was used. Obtained values were converted into units by using a previously prepared thrombin standard curve. Graphs were prepared by plotting the converted values on the vertical axis, and the concentrations of the compounds on the horizontal axis. In the graphs, the thrombin unit was defined as 100 at a compound concentration of 0. The concentration of compounds corresponding to 50 units were defined as 50% inhibitory concentrations of compounds.

[6] = target: T1, thrombin; test: Inhibitory action against thrombin induced death; type: in vivo, mice; settings: score 0 normal, 1 loss of roll over reflection, 2 death within 20 minutes
Protocol: To male mice (20-25 g), in non-anaesthesia, thrombin (15 NIH units/10 g) was administered intravenously, and the anti-thrombin activity of the tested compound was evaluated by observing the disappearance of roll over reflection and death as indexes. All the tested compounds were dissolved in saline and 0.05 ml/10 g were administered intravenously 5 min prior to the thrombin injection.

[7] = test system: α-chymotrypsin; test: α-chymotrypsin in 0.1M sodium-phoshate buffer (pH7.0); settings: 37° C., up to 24 hours

Gly--Asp--Phe--Glu--Glu--Ile--Pro--Glu--Tyr--Tyr(SO3 H)--Leu--Gln
cleaved bond [1]: Leu-Gln; also recorded: Tyr(SO3 H)-Leu
not cleaved [1]: no Tyr was released (30 min.)
cleaved bond [2]: Glu-Tyr

Val--Val--Tyr--Thr--Asp--Cys--Thr--Glu--Ser--Gly--Gln--Asn--Leu--Cys--Leu--Cys--Glu--Gly--Ser--Asn--Val--Cys--Gly--Gln--Gly--Asn--Lys--Cys--Ile--Leu--Gly--Ser--Asp--Gly--Glu--Lys--Asn--Gln--Cys--Val--Thr--Gly--Glu--Gly--Thr--Pro--Lys--Pro--Gln--Ser--His--Asn--Asp--Gly--Asp--Phe--Glu--Glu--Ile--Pro--Tyr--Tyr(SO3 H)--Tyr(SO3 H)--Leu--Gln [Sulfated form of hirudin HV-17 peak 1]
Ki [3]: 0.0028 nM
Potency [3]: 2.3

CC[C@H](C)[C@H](NC(=O)[C@@H]1CCCN1C(=O)[C@H](CCC(=O)O)NC(=O)[C@H](Cc1ccccc1)NC(=O)[C@H](CC(=O)O)NC(=O)CNC(=O)CCC(=O)O)C(=O)N1CCC[C@H]1C(=O)N[C@@H](CCC(=O)O)C(=O)N[C@@H](Cc1ccc(OS(=O)(=O)O)cc1)C(=O)N[C@@H](Cc1ccc(OS(=O)(=O)O)cc1)C(=O)N[C@@H](CC(C)C)C(=O)N[C@@H](CCC(N)=O)C(=O)O [Sulfated form of (C), Suc--Gly--Asp--Phe--Glu--Pro--Ile--Pro--Glu--Tyr(SO3 H)--Tyr(SO3 H)--Leu--Gln--OH] (Suc-GDFEPIPE[sY][sY]LQ-OH)
Bleeding time ([4]; 10 mg/kg via tail vein): 277.5 ± 31.5 s
Bleeding time ([4]; 20 mg/kg via tail vein): 366.0 ± 23.0 s
Bleeding time ([4]; 50 mg/kg via tail vein): 432.0 ± 33.3 s
Potency ([5]; calculated using the definition that HV-1 (54-65) potency is 1): 88.94
IC50 [5]: 42.9 nM
Score ([6]; 20 mg/kg i.v. 5 min before thrombin 15 NIH units/10 g): 1.2
Score ([6]; 50 mg/kg i.v. 5 min before thrombin 15 NIH units/10 g): 0.8
Score ([6]; 100 mg/kg i.v. 5 min before thrombin 15 NIH units/10 g): 0.6

Val--Val--Tyr--Thr--Asp--Cys--Thr--Glu--Ser--Gly--Gln--Asn--Leu--Cys--Leu--Cys--Glu--Gly--Ser--Asn--Val--Cys--Gly--Gln--Gly--Asn--Lys--Cys--Ile--Leu--Gly--Ser--Asp--Gly--Glu--Lys--Asn--Gln--Cys--Val--Thr--Gly--Glu--Gly--Thr--Pro--Lys--Pro--Gln--Ser--His--Asn--Asp--Gly--Asp--Phe--Glu--Glu--Ile--Pro--Tyr--Tyr--Tyr(SO3 H)--Leu--Gln [Sulfated form of hirudin HV-17 peak 2]
Ki [3]: 0.0043 nM
Potency [3]: 1.5

GDFEEIPYYYLQ
cleaved bond [7]: Tyr-Tyr

Val--Val--Tyr--Thr--Asp--Cys--Thr--Glu--Ser--Gly--Gln--Asn--Leu--Cys--Leu--Cys--Glu--Gly--Ser--Asn--Val--Cys--Gly--Gln--Gly--Asn--Lys--Cys--Ile--Leu--Gly--Ser--Asp--Gly--Glu--Lys--Asn--Gln--Cys--Val--Thr--Gly--Glu--Gly--Thr--Pro--Lys--Pro--Gln--Ser--His--Asn--Asp--Gly--Asp--Phe--Glu--Glu--Ile--Pro--Tyr--Tyr(SO3 H)--Tyr--Leu--Gln [Sulfated form of hirudin HV-17 peak 3]
Ki [3]: 0.0059 nM
Potency [3]: 1.1

CC[C@H](C)[C@H](NC(=O)[C@@H]1CCCN1C(=O)[C@H](CCC(=O)O)NC(=O)[C@H](Cc1ccccc1)NC(=O)CCC(=O)O)C(=O)N1CCC[C@H]1C(=O)N[C@@H](CCC(=O)O)C(=O)N[C@@H](Cc1ccc(O)cc1)C(=O)N[C@@H](Cc1ccc(O)cc1)C(=O)NCCCCC(=O)O [(L)] (Suc-FEPIPEYY[Ava]-OH)
IC50 [5]: 12400 nM

Source: US5880258A (dated 1999)
